Results on 29 compounds are retold here after patent US20150320776A1, “METHOD OF INHIBITING HELICOBACTER PYLORI” (priority 2014, published 2015).

The test system of assay [1] is Helicobacter pylori J99. Put plainly: Paper disc diffusion test, inhibition zone on agar plate. Format: cell-based. As to conditions: blank disc 8 mm; for zone of inhibition at 4 mg/disc / zone of inhibition at 1 mg/disc: Helicobacter pylori, J99, read-out: inhibition growth diameter; for inhibition zone diameter (FIG. 5): amount per disc not given. As to the method: Helicobacter pylori J99 (HP J99) used in the embodiments of the present invention was purchased from Bioresource Collection and Research Center (BCRC). The cultivating condition is indicated as follows: the bacteria were inoculated onto CDC medium (CDC anaerobe 5% blood agar, BD) and then incubated at 37° C. for 48 to 72 hours. After incubation, the bacteria were further incubated under micro-aerobic condition (5% O2, 10% CO2, 85% N2). For preparation of solutions with the foregoing compound A or compound B, ethanol was used as solvent to prepare various suitable concentrations.
The test on the inhibitory effect of Helicobacter pylori with the compound A or compound B of the present invention was carried out as follows: Helicobacter pylori was first grown on a CDC agar plate containing sheep blood for 48 to 72 hours. The bacterial colony was scraped with a cotton swab or an inoculation loop and subsequently transferred into a normal saline solution (0.9% NaCl). The optical density was then adjusted to 2 Mcfarland (1-4×10^8/ml bacteria) to obtain a solution with Helicobacter pylori. Subsequently, the foregoing compound A or compound B was weighed out to prepare a series of concentrations (from 10 mg/ml to 100 mg/ml) of test solutions (40 μl) and then 40 μl of the solution were transferred onto blank paper discs. After dryness, the discs were separately stuck to a proper site on the agar plate. After incubation under micro-aerobic condition at 37° C. for 48 hours, observation was made if any inhibition zone emerged on the agar plate.
The compounds of the present invention, which were actually tested, included phenoxyacetic acid, 3,4-dihydrobenzoic acid, 3,5-diamino-benzoic acid, 4-aminophenylacetic acid, 4-nitrobenzoic acid, 2,4-dinitrobenzoic acid, 4-(dimethylamino)benzoic acid, 2-methoxyphenylacetic acid, 3-amino-4-methylbenzoic acid, 4-methylthiobenzoic acid, 4-bromphenylacetic acid, 1,4-cyclohexanedicarboxylic acid, phthalic acid, trans-cinnamic acid, 4-ethylbenzoic acid, phenylacetic acid, benzoic acid, 3-phenylpropionic acid, 4-phenylbutyric acid, 3,4-dimethoxybenzyl alcohol (1) and 4-indophenylboronic acid (2). Ethanol (3) and water (4) were used as control.

Assay [2] relates to susceptible H. pylori. The conditions noted are these: cited from earlier work; for increase of MIC90: ratio of pH 5.5 to 7.0.
Assay [3] relates to H. pylori J99. Put plainly: Minimal bactericidal concentration (MBC). Format: cell-based. As to conditions: Helicobacter pylori, kills 99.9% of bacteria of control group, 37° C., 1 to 2 hours. As to the method:
Minimal bactericidal concentration (MBC) was determined by incubating test bacteria with different doses of test compounds for a period of time. Subsequently, the solutions underwent serial dilutions and the bacteria were grown on the agar plate by plate coating. At this moment, the concentration of test compound lost its inhibitory ability because of being diluted via serial dilutions and plate coating and it could be seen from the clear bacterial solution if the bacteria were dead. If bacteria growth was inhibited by the concentration of test compound, the bacteria might continue to grow after the abovementioned treatment and appeared in the form of colonies. In an embodiment of the present invention, H. pylori J99 were pre-cultivated for two days and colonies were scraped and suspended in saline solution. The bacterial concentration was then adjusted to 2 McFarland. After addition of suitable concentrations of benzoic acid and phenylacetic acid and incubation at 37° C. for 1 to 2 hours, the bacterial suspension underwent serial dilutions. 100 μl aliquots were taken from each suspension and applied on CDC plates. The plates were incubated under micro-aerobic condition at 37° C. for two days. The number of bacterial colonies was noted down and the concentration of test compound, that is able to kill 99.9% of bacteria of control group, was used as minimal bactericidal concentration.

For assay [4], the system named is H. pylori J99. Put plainly: Minimum inhibition concentration with different pH values. In kind it is cell-based, Helicobacter pylori. As to conditions: for MIC90: Helicobacter pylori; for MIC: pH 6.0 to pH 7.0, no change observed.

In brackets after ≈: the same amount, converted by molar mass. Read-outs that look alike come from different tables or passages of the source.

Take `O=C(O)C1CCC(C(=O)O)CC1` (stereo not drawn) [1,4-cyclohexanedicarboxylic acid]: the zone of inhibition at 4 mg/disc in assay [1] (4 mg/disc) came to 12 mm.

Compound `O=C(O)c1ccc([N+](=O)[O-])cc1[N+](=O)[O-]` [2,4-dinitrobenzoic acid] showed an inhibition growth diameter in assay [1] (4 mg/disc) of 33 mm.

For `COc1ccccc1CC(=O)O` [2-methoxyphenylacetic acid], the zone of inhibition at 4 mg/disc in assay [1] (4 mg/disc) is 16 mm.

Turning to `COc1ccc(CO)cc1OC` [3,4-dimethoxybenzyl alcohol], in assay [1] (4 mg/disc), the zone of inhibition at 4 mg/disc came out at 20 mm. In assay [1], the “inhibition zone diameter (FIG. 5)” value is 20 mm.

Turning to `Nc1cc(N)cc(C(=O)O)c1` [3,5-diaminobenzoic acid], in assay [1] (4 mg/disc), the zone of inhibition at 4 mg/disc worked out at 12 mm.

`Cc1ccc(C(=O)O)cc1N` [3-amino-4-methylbenzoic acid]: the zone of inhibition at 4 mg/disc in assay [1] (4 mg/disc) was 14 mm.

In the case of `O=C(O)CCc1ccccc1` [3-phenylpropionic acid], in assay [1] (1 mg/disc), the zone of inhibition at 1 mg/disc came out at 14 mm. Moreover, the zone of inhibition at 4 mg/disc in assay [1] (4 mg/disc) stood at 34 mm.

In the case of `CN(C)c1ccc(C(=O)O)cc1` [4-(dimethylamino)benzoic acid], the zone of inhibition at 4 mg/disc in assay [1] (4 mg/disc) was 26 mm.

For the compound `Nc1ccc(CC(=O)O)cc1` [4-aminophenylacetic acid], the zone of inhibition at 4 mg/disc in assay [1] (4 mg/disc) worked out at 12 mm.

With `O=C(O)Cc1ccc(Br)cc1` [4-bromphenylacetic acid], the inhibition growth diameter in assay [1] (1 mg/disc) is 16 mm; in assay [1] (4 mg/disc) it was 35 mm.

As for `CCc1ccc(C(=O)O)cc1` [4-ethylbenzoic acid], the zone of inhibition at 1 mg/disc in assay [1] (1 mg/disc) came to 30 mm.

`OB(O)c1ccc(I)cc1` [4-indophenylboronic acid] came in with an inhibition growth diameter in assay [1] (1 mg/disc) of 35 mm. Besides, the “inhibition zone diameter (FIG. 5)” value in assay [1] is on record as 35 mm.

In the case of `Cc1ccc(C(O)=S)cc1` [4-methylthiobenzoic acid], the zone of inhibition at 1 mg/disc in assay [1] (1 mg/disc) is 18 mm. Further, in assay [1] (4 mg/disc), the zone of inhibition at 4 mg/disc worked out at 40 mm.

With `O=C(O)c1ccc([N+](=O)[O-])cc1` [4-nitrobenzoic acid], the zone of inhibition at 1 mg/disc in assay [1] (1 mg/disc) was 70 mm.

As to `O=C(O)CCCc1ccccc1` [4-phenylbutyric acid], the zone of inhibition at 4 mg/disc in assay [1] (4 mg/disc) was determined as 28 mm.

For orientation: MIC90 means the lowest concentration that inhibits either 90% of growth or 90% of the strains tested, depending on the study. Take `CC1(C)S[C@@H]2[C@H](NC(=O)[C@H](N)c3ccccc3)C(=O)N2[C@H]1C(=O)O` [Ampicillin]: the MIC90 in assay [2] (pH 5.5) is 0.5 µg/mL (≈ 1.43 µM); in assay [2] (pH 6.0), 0.25 µg/mL (≈ 0.715 µM); in assay [2] (pH 7.5), 0.06 µg/mL (≈ 0.172 µM).

In general, MBC refers to the lowest tested concentration that kills the bacteria rather than only halting them. High values mean weaker bactericidal potency, low ones greater bactericidal potency. Consider `O=C(O)c1ccccc1` [Benzoic acid], for which the zone of inhibition at 4 mg/disc in assay [1] (4 mg/disc) is 24 mm. This compound had an MBC in assay [3] of 500 µg/mL (≈ 4090 µM). Also, the MIC90 in assay [4] (J99, pH 6) came to 0.06 µg/mL (≈ 0.491 µM); in assay [4] (J99, pH 6.5) it was 0.06 µg/mL (≈ 0.491 µM); in assay [4] (J99, pH 7), 0.06 µg/mL (≈ 0.491 µM). The compound also came in with an MIC in assay [4] of 0.06.

Turning to `O=C([O-])CC(O)(CC(=O)[O-])C(=O)[O-].O=C([O-])CC(O)(CC(=O)[O-])C(=O)[O-].[Bi+3].[K+].[K+].[K+]` [Bismuth subcitrate], the MIC90 is 8 µg/mL in assay [2] (pH 6.0) and 16 µg/mL in assay [2] (pH 7.5).

In the case of `CC1=C(C(=O)O)N2C(=O)[C@@H](NC(=O)[C@H](N)c3ccccc3)[C@H]2SC1` [Cefalexin], the MIC90 is 32 µg/mL (≈ 92.1 µM) in assay [2] (pH 5.5), 16 µg/mL (≈ 46.1 µM) in assay [2] (pH 6.0) and 2 µg/mL (≈ 5.76 µM) in assay [2] (pH 7.5).

In the case of `O=C(O)c1cn(C2CC2)c2cc(N3CCNCC3)c(F)cc2c1=O` [Ciprofloxacin], the MIC90 was 2 µg/mL (≈ 6.04 µM) in assay [2] (pH 5.5), 0.5 µg/mL (≈ 1.51 µM) in assay [2] (pH 6.0) and 0.12 µg/mL (≈ 0.362 µM) in assay [2] (pH 7.5).

Consider `CC[C@H]1OC(=O)[C@H](C)[C@@H](O[C@H]2C[C@@](C)(OC)[C@@H](O)[C@H](C)O2)[C@H](C)[C@@H](O[C@@H]2O[C@H](C)C[C@H](N(C)C)[C@H]2O)[C@](C)(OC)C[C@@H](C)C(=O)[C@H](C)[C@@H](O)[C@]1(C)O` [Clarithromycin], for which the MIC90 in assay [2] (pH 5.5) was 0.25 µg/mL (≈ 0.334 µM); in assay [2] (pH 6.0) it was 0.06 µg/mL (≈ 0.0802 µM); in assay [2] (pH 7.5) it was 0.03 µg/mL (≈ 0.0401 µM). In addition, in assay [2], the “increase of MIC90” value is listed as “eight”.

With `CC[C@H]1OC(=O)[C@H](C)[C@@H](O[C@H]2C[C@@](C)(OC)[C@@H](O)[C@H](C)O2)[C@H](C)[C@@H](O[C@@H]2O[C@H](C)C[C@H](N(C)C)[C@H]2O)[C@](C)(O)C[C@@H](C)C(=O)[C@H](C)[C@@H](O)[C@]1(C)O` [Erythromycin], the results for the MIC90 in assay [2] (pH 5.5), in assay [2] (pH 6.0) and in assay [2] (pH 7.5) were 8 µg/mL (≈ 10.9 µM), 2 µg/mL (≈ 2.73 µM) and 0.06 µg/mL (≈ 0.0818 µM), respectively.

For the compound `Cc1ncc([N+](=O)[O-])n1CCO` [Metronidazole], the MIC90 in assay [2] (pH 5.5), in assay [2] (pH 6.0) and in assay [2] (pH 7.5) was 2 µg/mL (≈ 11.7 µM) throughout.

As to `O=C(O)COc1ccccc1` [Phenoxyacetic acid], the zone of inhibition at 4 mg/disc in assay [1] (4 mg/disc) turned out to be 17 mm.

`O=C(O)Cc1ccccc1` [Phenylacetic acid]: the zone of inhibition at 4 mg/disc in assay [1] (4 mg/disc) was determined as 22 mm. For the same compound, the MBC in assay [3] came to 1000 µg/mL (≈ 7340 µM). In addition, the MIC90 in assay [4] (J99, pH 6.5, read-out: MIC90) came to 0.125 µg/mL (≈ 0.918 µM); in assay [4] (J99, pH 7) it was 0.125 µg/mL (≈ 0.918 µM); in assay [4] (J99, pH 6.0, read-out: MIC90) it was 0.125 µg/mL (≈ 0.918 µM). Besides, the MIC in assay [4] came out at 0.125.

`O=C(O)/C=C/c1ccccc1` [Trans-cinnamic acid]: the zone of inhibition at 1 mg/disc in assay [1] (1 mg/disc) came out at 25 mm.

On to `CC1(C)S[C@@H]2[C@H](NC(=O)[C@H](N)c3ccc(O)cc3)C(=O)N2[C@H]1C(=O)O` [amoxicillin], for which, in assay [2], the “increase of MIC90” value was “eight”.

For `O=C(O)c1ccccc1C(=O)O` [phthalic acid], in assay [1] (4 mg/disc), the zone of inhibition at 4 mg/disc worked out at 12 mm.

Take Penicillin: the values for the MIC90 in assay [2] (pH 5.5), in assay [2] (pH 6.0) and in assay [2] (pH 7.5) were 0.5 µg/mL, 0.5 µg/mL and 0.03 µg/mL, respectively.
